From publication PMC12631912, “A Multifunctional Molecular Probe for Multimodal Imaging‐Guided Potent Photothermal/Photodynamic Therapy of Endometriosis” (Advanced Science, 2025)

How the values were obtained:
[1] = T1 relaxivity (r1) of probe solutions by MRI; assay type: physicochemical; settings: in PBS, 3.0 T MRI scanner, room temperature; slope of 1/T1 versus Gd concentration; n = 3 regions of interest
Description: An inversion recovery spin echo sequence was executed with the parameters: repetition time (TR) = 5.27 ms, echo time (TE) = 2.29 ms, field of view (FOV) = 160 mm × 160 mm, acquisition matrix = 336 × 336, acquisition voxel = 0.48 mm × 0.48 mm × 2 mm, slice thickness = 2 mm, reconstruction matrix = 672 × 672, reconstruction voxel = 0.24 mm × 0.24 mm × 2 mm, number of flip angles = 4 (3°, 6°, 9°, 13°), and NSA = 1. Regions of interest (ROI, average size 10 mm^2) were analyzed to acquire the T1 relaxation times. The r 1 was then calculated based on the slope of the linear plot between 1/T1 and Gd concentration, determined through linear least‐squares regression analysis.

[2] = system: EESCs; assay: Cellular internalization of probes by flow cytometry; assay type: cell-based, human; settings: EESC, in Figure 3g
Description: (§1) Furthermore, the cellular internalization of the probes was quantitatively evaluated using flow cytometry. […] After these incubation periods, the cells were washed three times with PBS, trypsinized, and collected. The harvested cells were then analyzed using an Attune NxT flow cytometer (Invitrogen, USA). The data obtained was analyzed utilizing NovoExpress 1.4.0 software (Agilent, USA).

[3] = system: Ishikawa cells; assay: as above; assay type: cell-based; settings: in Figure 3g
Description: as §1

[4] = system: EMS lesions; assay: In vivo infrared thermography of EMS lesions; parameters: species or system BALB/c nude mice; settings: EMS nude mice, ICG 500 µg kg^−1 i.v., 1 h post-injection, 808 nm laser 1.0 W cm^−2, within 5 min; n = 3
Description: As shown in previous references,^[ [19] ^] to establish a xenograft EMS model in nude mice, female BALB/c nude mice (5‐6 weeks, 18‐20 g) served as recipients, and female Sprague–Dawley rats (7‐9 weeks, 200–240 g) with regular 4–5 days estrous cycles were selected as donors after a week of acclimatization. Prior to surgery, nude mice received daily intramuscular β‐estradiol 17‐pentanoate (0.25 µg g^−1) for 3 days. The EMS model was induced by subcutaneous transplantation of ≈40 mg of rat uterine fragments into nude mice. The uterine horns from euthanized donors were sterilely collected, bisected, minced, and suspended in DMEM/F12 medium before injection. Nude mice then received β‐estradiol 17‐pentanoate (0.25 µg g^−1) injections every 2 days, and endometriotic lesions reaching 100 mm^3 were used for subsequent experiments.
To investigate the photothermal heating efficacy at lesion sites in EMS mice, in vivo infrared thermography studies were conducted. […] Thermal responses were monitored in real‐time using a digital thermographic camera (Fluke Ti27, IR Fusion Technology, USA). Infrared thermal images were captured, and temperature measurements were recorded. The temporal correlation between temperature elevation and laser irradiation duration was analyzed using AnalyzIR software (4.0.0).

[5] = system: EMS lesions; assay: In vivo photoacoustic imaging of EMS lesions; parameters: species or system BALB/c nude mice; settings: EMS nude mice, ICG 4 µg g^−1 i.v., imaging to 48 h; n = 3
Description: PAI was conducted using a TomoWave LOIS‐3D series photoacoustic imaging system before injection and at 30 min, 5 h, 24 h, and 48 h post‐injection. Photoacoustic image processing and analysis were conducted using LOIS View 3D software and ImageJ 1.53e. ROIs were manually delineated on axial photoacoustic images to quantify lesion signal intensity (SI).

[6] = UV absorption and fluorescence emission spectra; assay type: physicochemical; settings: in PBS, cRGD-ILD C ICG = 10 µg mL^−1, ICG 5 µg/mL
Description: The ^1H NMR spectra were conducted utilizing a Varian Unity 400 MHz Spectrometer ([…]) in a variety of deuterated solvents. ESI‐MS were obtained with a Thermo Scientific LTQ XL mass spectrometer (Thermo, USA). UV absorption spectra were measured by a Unico UV‐2000 UV–vis Spectrophotometer (Shanghai, China). Photoluminescence excitation and emission spectra were recorded using an FSP920‐combined Time Resolved and Steady State Fluorescence Spectrometer (Edinburgh, UK), equipped with a 450‐W xenon lamp. Both the UV and fluorescence spectrophotometers were scanned within the wavelength range of 650–850 nm.

[7] = system: EESCs; assay: CCK-8 cytotoxicity without laser irradiation; assay type: cell-based, human; settings: CCK-8, 24 h incubation, ICG concentration up to 300 µg mL^−1
Description: (§2) After 24 h, the medium was replaced with fresh medium containing 10% CCK‐8 reagent and incubated for an additional 2 h. The absorbance at 450 nm was measured using a Synergy 2 multimode microplate reader (BioTek, USA), with the wells without cells serving as blanks. All experiments were performed in triplicate.

[8] = system: Ishikawa cells; assay: CCK-8 cytotoxicity without laser irradiation; assay type: cell-based; settings: CCK-8, 24 h incubation, ICG concentration up to 300 µg mL^−1
Description: as §2

[9] = In vivo fluorescence imaging, off-target effects and clearance in healthy mice; parameters: species or system BALB/c nude mice
[10] = C ICG = 2.5 µg mL^−1, 1 h incubation
[11] = C ICG = 2.5 µg mL^−1, 4 h incubation

Row | Substance | T 1 relaxivities (r 1) [1] | internalized probes by flow cytometry [2, 10] | internalized probes by flow cytometry [2, 11] | internalized probes by flow cytometry [3, 10] | internalized probes by flow cytometry [3, 11] | localized (maximum) temperature at the EMS lesion [4] | PA signal in lesions over time [5] | fluorescence emission peak ([6]; λex = 755 nm) | absorption peak [6] | cell viability without laser irradiation [7] | cell viability without laser irradiation [8] | tissue distribution by serial in vivo fluorescence imaging ([9]; healthy BALB/c nude mice, ICG 1000 µg kg^−1 i.v.) | fluorescence signal as % of the 24 h level ([9]; healthy BALB/c nude mice, ICG 1000 µg kg^−1 i.v., within 7 days, n = 3) | ex vivo fluorescence of major organs ([9]; healthy nude mice, 10 days post-injection, heart, liver, spleen, lungs, kidneys)
1 | ICG‐lys‐DTPA@Gd [ILD] | 5.37 mM⁻¹ s⁻¹ | 74.68% | 94.41% | 61.98% | 93.22% | 34.5 °C | rapid signal attenuation | – | – | – | – | – | – | –
2 | c(RGDyK)‐ICG‐lys‐DTPA@Gd (head to tail) [cRGD‐ILD, targeting theranostic probe integrating cRGD peptide, ICG fragment and DTPA@Gd complex] | 4.85 mM⁻¹ s⁻¹ | – | – | – | – | – | sustained elevated PA signal intensities at 5 and 24 h | 764 nm | 755 nm | above 90% | above 90% | no specific tissue distribution | ≈ 14.75% | minimal residual fluorescence
